For one assay, the target named is T1, EphB4 (Homo sapiens, UniProt P54760).
T1 construct: to generate full-length EphB4 containing a Myc-His tag at the C-terminus; expressed in transfected cells
T1 sequence (P54760 16-987): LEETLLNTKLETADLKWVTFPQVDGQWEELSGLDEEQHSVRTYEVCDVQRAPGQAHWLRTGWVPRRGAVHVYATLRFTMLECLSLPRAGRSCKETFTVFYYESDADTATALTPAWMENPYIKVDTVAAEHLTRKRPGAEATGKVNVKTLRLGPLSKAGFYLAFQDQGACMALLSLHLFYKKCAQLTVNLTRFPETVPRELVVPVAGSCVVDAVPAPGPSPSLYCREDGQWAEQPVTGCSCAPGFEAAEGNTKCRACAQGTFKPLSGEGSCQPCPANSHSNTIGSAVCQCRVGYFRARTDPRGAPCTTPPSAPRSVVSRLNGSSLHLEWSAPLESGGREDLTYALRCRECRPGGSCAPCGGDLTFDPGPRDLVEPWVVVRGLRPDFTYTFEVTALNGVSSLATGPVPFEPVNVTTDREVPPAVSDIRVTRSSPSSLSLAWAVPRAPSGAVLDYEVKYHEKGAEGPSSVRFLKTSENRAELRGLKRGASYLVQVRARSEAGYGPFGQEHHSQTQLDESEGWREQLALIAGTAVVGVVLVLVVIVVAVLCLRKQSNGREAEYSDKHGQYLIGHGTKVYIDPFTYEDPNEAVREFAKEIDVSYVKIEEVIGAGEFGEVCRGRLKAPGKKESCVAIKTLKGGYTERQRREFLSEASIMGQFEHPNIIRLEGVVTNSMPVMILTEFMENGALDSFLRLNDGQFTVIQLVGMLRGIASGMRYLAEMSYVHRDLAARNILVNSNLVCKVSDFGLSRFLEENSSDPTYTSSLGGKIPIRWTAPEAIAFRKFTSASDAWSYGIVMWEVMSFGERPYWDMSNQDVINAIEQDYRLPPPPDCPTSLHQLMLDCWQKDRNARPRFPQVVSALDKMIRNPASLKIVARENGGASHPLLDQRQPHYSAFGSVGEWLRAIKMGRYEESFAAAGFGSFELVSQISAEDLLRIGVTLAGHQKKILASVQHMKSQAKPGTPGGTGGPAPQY
In words: In vitro EphB4 cell assay (EphB4 phosphorylation ELISA in EphB4-CHO cells). The format is cell-based. The method, then:
The assay identifies inhibitors of cellular EphB4 by measuring a decrease in phosphorylation of EphB4 following treatment of cells with compound. The endpoint assay used a sandwich ELISA to detect EphB4 phosphorylation status. Briefly, Myc-tagged EphB4 from treated cell lysate was captured on the ELISA plate via an anti-c-Myc antibody. The phosphorylation status of captured EphB4 was then measured using a generic phosphotyrosine antibody conjugated to HRP via a colourimetric output catalysed by HRP, with level of EphB4 phosphorylation directly proportional to the colour intensity. Absorbance was measured spectrophotometrically at 450 nm.
Full length human EphB4 (Swiss-Prot Acc. No. P54760) was cloned using standard techniques from cDNA prepared from HUVEC using RT-PCR. The cDNA fragment was then sub-cloned into a pcDNA3.1 expression vector containing a Myc-His epitope tag to generate full-length EphB4 containing a Myc-His tag at the C-terminus (Invitrogen Ltd. Paisley, UK). […] CHO-K1 cells were engineered to stably express the EphB4-Myc-His construct using standard stable transfection techniques, to generate cells hereafter termed EphB4-CHO. […]
Plates were washed twice with PBS/0.05% Tween-20 and incubated with 100 μl/well cell lysate overnight at 4° C. […] The absorbances were determined at 450 nm using the Tecan SpectraFluor Plus. […]

Assay [1] deals with T2, recombinant EphB4 (Homo sapiens, UniProt P54760).
T2 sequence (P54760 563-987): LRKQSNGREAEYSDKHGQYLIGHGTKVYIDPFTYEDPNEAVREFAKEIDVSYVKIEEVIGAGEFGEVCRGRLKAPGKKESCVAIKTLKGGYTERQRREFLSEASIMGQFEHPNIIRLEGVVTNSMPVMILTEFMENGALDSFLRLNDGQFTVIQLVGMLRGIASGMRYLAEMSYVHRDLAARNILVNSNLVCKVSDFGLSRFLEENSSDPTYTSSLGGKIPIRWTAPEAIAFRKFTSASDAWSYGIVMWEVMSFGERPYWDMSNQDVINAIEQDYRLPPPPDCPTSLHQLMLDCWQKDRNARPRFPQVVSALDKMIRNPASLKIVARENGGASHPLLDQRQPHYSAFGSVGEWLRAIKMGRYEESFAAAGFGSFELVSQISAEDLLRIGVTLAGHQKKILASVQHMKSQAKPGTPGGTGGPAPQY
In words: biochemical.
From the text: (§1) This assay detects inhibitors of EphB4-mediated phosphorylation of a polypeptide substrate using Alphascreen™ luminescence detection technology. […] The reaction was stopped by addition of EDTA, together with streptavidin-coated donor beads which bind the biotin-substrate containing any phosphorylated tyrosine residues. Anti-phosphotyrosine antibodies present on acceptor beads bind to phosphorylated substrate, thus bringing the donor & acceptor beads into close proximity. Subsequent excitation of the donor beads at 680 nm generated singlet oxygen species that interact with a chemiluminescer on the acceptor beads, leading to light emission at 520-620 nm. The signal intensity is directly proportional to the level of substrate phosphorylation and thus inhibition is measured by a decrease in signal.
(§2) To ensure that each well contained a total of 120 nl DMSO the wells were all backfilled as required. […] The test range of compounds was 100× the required final concentration.
(§3) Assay plates were then incubated at room temperature for 1 hour.
(§4) For assays using compounds prepared via acoustic dispensing, the assay mix was adjusted such that the final assay volume of 12 ul contained the same concentration of reagent as 10 ul of assay mix used when aqueous compounds were tested.
(§5) The plates were sealed under natural lighting conditions, wrapped in aluminium foil and incubated in the dark for a further 20 hours.
(§6) The resulting assay signal was determined on the Perkin Elmer EnVision plate reader. The minimum value was subtracted from all values, and the signal plotted against compound concentration to generate IC50 data. The method used to generate the compound dilutions was recorded with the IC50 value in the database.

For assay [2], the target named is T2, recombinant EphB4. To be noted: read-out: EphB4 enzyme assay Mean IC50 value; Method of compound preparation: Genesis (aqueous compound preparation); * = tested once only.
From the text: as §1, §2, §3, §4, §5, §6
Where [3] appears, read: EphB4 enzyme assay Mean IC50 value, Method of compound preparation: Echo (acoustic dispensing), * = tested once only.
Setting [4] is: EphB4 enzyme assay Mean IC50 value, Method of compound preparation: Genesis (aqueous compound preparation), * = tested once only.

Where two headings read alike, the source gives them in different places. A value given as a limit tells only on which side of the number the result lay.

As for `CN(c1cc(Cl)ccn1)c1ccnc(Nc2cc(N3CCOCC3)cc(N3CCOCC3)c2)n1` [Example 2a, N′-(4-chloropyridin-2-yl)-N-(3,5-dimorpholin-4-ylphenyl)-N′-methyl-pyrimidine-2,4-diamine], the IC50 on EphB4 stood at 197 nM; at recombinant EphB4 [1] (IC50 in assay A, method of compound preparation not stated), 405 nM.
As to `Cc1cccc(N(C)c2ccnc(Nc3cc(N4CCOCC4)cc(N4CCOCC4)c3)n2)n1` [Example 11, N-[3,5-di(morpholin-4-yl)phenyl]-N′-methyl-N′-(6-methylpyridin-2-yl)pyrimidine-2,4-diamine], the half-maximal inhibitory concentration (IC50) on recombinant EphB4 [1] (setting [3]) was 207 nM; on recombinant EphB4 [1] (setting [4]) it was > 14400 nM.
In the case of `Cc1cc(N(C)c2ccnc(Nc3cc(N4CCOCC4)cc(N4CCOCC4)c3)n2)cnc1Cl` [Example 8b, N′-(6-chloro-5-methyl-pyridin-3-yl)-N-(3,5-dimorpholin-4-ylphenyl)-N′-methyl-pyrimidine-2,4-diamine], at recombinant EphB4 [1] (setting [4]), the IC50 came to 166 nM.
Take `Cc1ncc(CO)cc1N(C)c1ccnc(Nc2cc(N3CCOCC3)cc(N3CCOCC3)c2)n1` [Example 13, [5-[[2-[[3,5-di(morpholin-4-yl)phenyl]amino]pyrimidin-4-yl]-methylamino]-6-methylpyridin-3-yl]methanol]: the IC50 at recombinant EphB4 [1] (setting [3]) was 66.9 nM.
With `CN(c1ccc(Cl)nc1)c1ccnc(Nc2cc(N3CCOCC3)cc(N3CCOCC3)c2)n1` [Example 6, N4-(6-chloropyridin-3-yl)-N2-(3,5-dimorpholinophenyl)-N4-methylpyrimidine-2,4-diamine], the IC50 at recombinant EphB4 [1] (setting [4]) stood at 201 nM.
On the same count and under the same terms, to `COc1cc(N(C)c2ccnc(Nc3cc(N4CCOCC4)cc(N4CCOCC4)c3)n2)cnc1Cl` [Example 8a, N′-(6-chloro-5-methoxy-pyridin-3-yl)-N-(3,5-dimorpholin-4-ylphenyl)-N′-methyl-pyrimidine-2,4-diamine] belongs 106 nM.
Still for that read-out and setting: the result for `Cc1ccc(N(C)c2ccnc(Nc3cc(N4CCOCC4)cc(N4CCOCC4)c3)n2)cn1` [Example 7a, N-(3,5-dimorpholin-4-ylphenyl)-N′-methyl-N′-(6-methylpyridin-yl)pyrimidine-2,4-diamine] reads 116 nM.
For `COc1cnc(C)c(N(C)c2ccnc(Nc3cc(N4CCOCC4)cc(N4CCOCC4)c3)n2)c1` [Example 7d, N-(3,5-dimorpholin-4-ylphenyl)-N′-(5-methoxy-2-methyl-pyridin-3-yl)-N′-methyl-pyrimidine-2,4-diamine], the half-inhibitory concentration (IC50) on recombinant EphB4 [1] (setting [3]) turned out to be 4.37 nM.
On the same count and under the same terms, to `COc1cnc(Cl)c(N(C)c2ccnc(Nc3cc(N4CCOCC4)cc(N4CCOCC4)c3)n2)c1` [Example 9, N′-(2-chloro-5-methoxy-pyridin-3-yl)-N-(3,5-dimorpholin-4-ylphenyl)-N′-methyl-pyrimidine-2,4-diamine] belongs 10.7 nM.
`CN(c1cncc(Cl)c1)c1ccnc(Nc2cc(N3CCOCC3)cc(N3CCOCC3)c2)n1` [Example 3, N′-(5-chloropyridin-3-yl)-N-(3,5-dimorpholin-4-ylphenyl)-N′-methyl-pyrimidine-2,4-diamine]: the values for the concentration for half-maximal inhibition (IC50) on recombinant EphB4 [1] (setting [3]) and on recombinant EphB4 [1] (setting [4]) were 11.6 nM and 49 nM, respectively.
The like results for `Cc1ccc(N(C)c2ccnc(Nc3cc(N4CCOCC4)cc(N4CCOCC4)c3)n2)nc1` [Example 12, N-[3,5-di(morpholin-4-yl)phenyl]-N′-methyl-N′-(5-methylpyridin-2-yl)pyrimidine-2,4-diamine] were, in that order, 158 nM and 250 nM.
On to `Cc1cnc(C)c(N(C)c2ccnc(Nc3cc(N4CCOCC4)cc(N4CCOCC4)c3)n2)c1` [Example 7c, N′-(2,5-dimethylpyridin-3-yl)-N-(3,5-dimorpholin-4-ylphenyl)-N′-methyl-pyrimidine-2,4-diamine], for which the IC50 at recombinant EphB4 [1] (setting [4]) worked out at 384 nM.
Turning to `CN(c1cccc(Cl)n1)c1ccnc(Nc2cc(N3CCOCC3)cc(N3CCOCC3)c2)n1` [Example 4, N′-(6-chloropyridin-2-yl)-N-(3,5-dimorpholin-4-ylphenyl)-N′-methyl-pyrimidine-2,4-diamine], at recombinant EphB4 [1] (setting [4]), the IC50 amounted to 611 nM.
As for “N′-(4-chloropyridin-4-yl)-N-(3,5-dimorpholin-4-ylphenyl)-N′-methyl-pyrimidine-2,4-diamine [Example 2b]”, the half-maximal inhibitory concentration (IC50) on recombinant EphB4 [2] was found to be 207 nM.
With `Cc1ccc(CO)nc1N(C)c1ccnc(Nc2cc(N3CCOCC3)cc(N3CCOCC3)c2)n1` [Example 10, (6-((2-(3,5-dimorpholinophenylamino)pyrimidin-4-yl)(methyl)amino)-5-methylpyridin-2-yl)methanol], the IC50 on recombinant EphB4 [1] (setting [3]) is 141 nM.

Source of the values: patent publication US20090054428A1, “NOVEL PYRIMIDINE DERIVATIVES 965” (ASTRAZENECA AB, priority 2007, published 2009).
